Test results from PubChem BioAssay (NCI).
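Compound exposure: 48 hours, 5 concentrations, 96-well plates. The concentration for full growth arrest is given as TGI.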

Columns and labels:
Experiment in all cases: DTP human tumour cell line panel, 48 h
A498 renal = system: A498 renal
ACHN renal = system: ACHN renal
BT-549 breast = system: BT-549 breast
DU-145 prostate = system: DU-145 prostate
HCT-116 colon = system: HCT-116 colon
M14 melanoma = system: M14 melanoma
MDA-MB-231 breast = system: MDA-MB-231 breast
MDA-MB-435 = system: MDA-MB-435
NCI-H522 lung = system: NCI-H522 lung
PC-3 prostate = system: PC-3 prostate
SK-OV-3 ovarian = system: SK-OV-3 ovarian
SNB-75 CNS = system: SNB-75 CNS
SR leukemia = system: SR leukemia
SW-620 colon = system: SW-620 colon
T-47D breast = system: T-47D breast
UACC-62 melanoma = system: UACC-62 melanoma
DLD-1 colon = system: DLD-1 colon
DMS 114 small cell lung = system: DMS 114 small cell lung
DMS 273 small cell lung = system: DMS 273 small cell lung
SNB-78 CNS = system: SNB-78 CNS

| SMILES | TGI (A498 renal) [µM] | TGI (ACHN renal) [µM] | TGI (BT-549 breast) [µM] | TGI (DU-145 prostate) [µM] | TGI (HCT-116 colon) [µM] | TGI (M14 melanoma) [µM] | TGI (MDA-MB-231 breast) [µM] | TGI (MDA-MB-435) [µM] | TGI (NCI-H522 lung) [µM] | TGI (PC-3 prostate) [µM] | TGI (SK-OV-3 ovarian) [µM] | TGI (SNB-75 CNS) [µM] | TGI (SR leukemia) [µM] | TGI (SW-620 colon) [µM] | TGI (T-47D breast) [µM] | TGI (UACC-62 melanoma) [µM] | TGI (DLD-1 colon) [µM] | TGI (DMS 114 small cell lung) [µM] | TGI (DMS 273 small cell lung) [µM] | TGI (SNB-78 CNS) [µM] |
| --- | --- | --- | --- | --- | --- | --- | --- | --- | --- | --- | --- | --- | --- | --- | --- | --- | --- | --- | --- | --- |
| COc1ccc(C2c3cc4c(cc3OC(Nc3ccccc3)C2C)OCO4)cc1 (stereo not given) | > 100 | > 100 | > 100 | > 100 | > 100 | > 100 | > 100 | > 100 | > 100 | > 100 | > 100 | > 100 | 9.18 | > 100 | > 100 | > 100 | – | – | – | – |
| CN(C)CCCNC(=O)N/N=C/c1ccccc1 | > 100 | > 100 | – | – | > 100 | – | – | – | > 100 | – | > 100 | > 100 | – | > 100 | – | > 100 | > 100 | > 100 | > 100 | > 100 |
| CCOC(=O)c1csc(NC(=O)CCN2CCN(C)CC2)n1 | > 100 | > 100 | – | > 100 | – | > 100 | > 100 | > 100 | – | > 100 | > 100 | > 100 | > 100 | > 100 | > 100 | > 100 | – | – | – | – |
| CCOC(=O)c1csc(NC(=O)CCN2CCCC2)n1 | – | > 100 | – | > 100 | – | > 100 | > 100 | > 100 | – | > 100 | > 100 | > 100 | > 100 | > 100 | > 100 | > 100 | – | – | – | – |
| OC(CC(O)(C(F)(F)Cl)C(F)(F)Cl)c1ccccc1 (stereo not given) | 0.0548 | > 10 | > 10 | > 10 | > 10 | – | > 10 | – | > 10 | > 10 | > 10 | > 10 | > 10 | > 10 | > 10 | > 10 | – | – | – | – |
| O=C(C(=C(I)I)c1ccccc1)c1ccccc1 | 28.6 | > 100 | > 100 | – | 36.9 | 73.3 | – | > 100 | – | > 100 | > 100 | – | 93.6 | > 100 | – | 53.4 | – | – | – | – |
| COc1cc(N=Nc2ccc(OC)c(S(=O)(=O)O)c2)c(C)cc1N=Nc1ccc(/C=C/c2ccc(N=[N+]([O-])c3ccc(/C=C/c4ccc(N=Nc5cc(C)c(N=Nc6ccc(OC)c(S(=O)(=O)O)c6)cc5OC)cc4S(=O)(=O)O)c(S(=O)(=O)O)c3)cc2S(=O)(=O)O)c(S(=O)(=O)O)c1 | > 100 | – | – | – | > 100 | – | – | – | > 100 | – | > 100 | > 100 | – | > 100 | – | > 100 | > 100 | > 100 | > 100 | > 100 |
| CCCn1cc2c3c(cccc31)C1C=C(C)CN(C)C1C2 (stereo not given) | 37.8 | – | – | – | 38.5 | – | – | – | 57.1 | – | 71.4 | 39.3 | – | 62.4 | – | 55.7 | 54.3 | 43.1 | 47.3 | 73.4 |
